Reference: patent US8071586B2, “Heterocyclyl compounds” (Hoffmann-La Roche Inc., priority 2008, dated 2011)

molecular target: T1, human chemokine receptor 2 isoform B (CCR2) (Homo sapiens, UniProt P41597); test: Calcium mobilization assay (FLIPR, MCP-1 stimulated CHOK1-CCR2B-A5 cells); type: cell-based; conditions: Ca mobilisation assay, CCR2 antagonist activity, inhibition of MCP-1 induced calcium increase
T1 sequence (P41597 1-360 isoform P41597-2): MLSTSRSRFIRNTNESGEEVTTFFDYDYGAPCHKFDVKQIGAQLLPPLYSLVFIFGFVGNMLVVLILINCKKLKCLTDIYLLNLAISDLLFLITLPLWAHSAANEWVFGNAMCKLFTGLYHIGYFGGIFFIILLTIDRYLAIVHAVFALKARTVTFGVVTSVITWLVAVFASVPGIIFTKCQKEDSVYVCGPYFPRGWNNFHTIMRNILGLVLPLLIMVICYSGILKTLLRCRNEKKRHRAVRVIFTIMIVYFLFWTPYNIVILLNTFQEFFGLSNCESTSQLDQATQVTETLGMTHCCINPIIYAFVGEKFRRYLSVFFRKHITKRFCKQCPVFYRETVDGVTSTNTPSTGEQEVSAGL
Summary of the method: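 Fluo-4-loaded CHOK1 cells stably expressing human CCR2B were preincubated with compound 20-30 min at 30 °C in DMEM/Hepes/probenecid/0.1% BSA buffer with 0.5% DMSO, then challenged with […] MCP-1. FLIPR calcium signal (max minus basal) gave IC50; agonism also monitored.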

Q: C[C@H]1C(=O)N([C@@H](CCN2CCC3(CC3)[C@H](O)C2)COC(=O)c2ccccc2)CCN1C(=O)Nc1ccc(Cl)c(Cl)c1 [Example 118, Benzoic acid (S)-2-[(S)-4-(3,4-dichloro-phenylcarbamoyl)-3-methyl-2-oxo-piperazin-1-yl]-4-((S)-4-hydroxy-6-aza-spiro[2.5]oct-6-yl)-butyl ester] was tested. Which IC50 did it give?
A: 3 nM

Q: Which IC50 does the source give for COc1ccc(C(=O)OC[C@H](CCN2CCC3(CC3)[C@H](O)C2)N2CCN(C(=O)Nc3ccc(Cl)c(Cl)c3)[C@@H](C)C2=O)cc1 [Example 119, 4-Methoxy-benzoic acid (S)-2-[(S)-4-(3,4-dichloro-phenylcarbamoyl)-3-methyl-2-oxo-piperazin-1-yl]-4-((S)-4-hydroxy-6-aza-spiro[2.5]oct-6-yl)-butyl ester] here?
A: 4 nM

Q: Which IC50 does the source give for C[C@H]1C(=O)N(C[C@@H](O)CN2CCC3(CC3)[C@H](O)C2)CCN1C(=O)Nc1ccc(Cl)c(Cl)c1 [Example 120, (S)-4-[(S)-2-Hydroxy-3-((S)-4-hydroxy-6-aza-spiro[2.5]oct-6-yl)-propyl]-2-methyl-3-oxo-piperazine-1-carboxylic acid (3,4-dichloro-phenyl)-amide] here?
A: 2 nM

Q: How did the IC50 turn out when C[C@H]1C(=O)N(C[C@@H](O)CN2CCC3(CC3)[C@H](O)C2)CCN1C(=O)Nc1cccc(Cl)c1 [Example 121, (S)-4-[(S)-2-Hydroxy-3-((S)-4-hydroxy-6-aza-spiro[2.5]oct-6-yl)-propyl]-2-methyl-3-oxo-piperazine-1-carboxylic acid (3-chloro-phenyl)-amide] was run?
A: 6 nM

Q: Which IC50 does the source give for C[C@H]1C(=O)N(C[C@H](O)CN2CCC3(CC3)[C@H](O)C2)CCN1C(=O)Nc1ccc(Cl)c(Cl)c1 [Example 122, (S)-4-[(R)-2-Hydroxy-3-((S)-4-hydroxy-6-aza-spiro[2.5]oct-6-yl)-propyl]-2-methyl-3-oxo-piperazine-1-carboxylic acid (3,4-dichloro-phenyl)-amide] here?
A: 23 nM

Q: For C[C@H]1C(=O)N(C[C@H](O)CN2CCC3(CC3)[C@H](O)C2)CCN1C(=O)Nc1cccc(Cl)c1 [Example 123, (S)-4-[(R)-2-Hydroxy-3-((S)-4-hydroxy-6-aza-spiro[2.5]oct-6-yl)-propyl]-2-methyl-3-oxo-piperazine-1-carboxylic acid (3-chloro-phenyl)-amide], which IC50 is on record?
A: 248 nM

Q: With C[C@H]1C(=O)N([C@@H](CCN2CCC3(CC3)[C@H](O)C2)C(=O)N(C)C)CCN1C(=O)Nc1ccc(Cl)c(Cl)c1 [Example 124, (S)-4-[(S)-1-Dimethylcarbamoyl-3-((S)-4-hydroxy-6-aza-spiro[2.5]oct-6-yl)-propyl]-2-methyl-3-oxo-piperazine-1-carboxylic acid (3,4-dichloro-phenyl)-amide] as the compound, how does the IC50 read?
A: 4 nM

Q: C[C@H]1C(=O)N([C@@H](CCN2CCC3(CC3)[C@H](O)C2)C(=O)N(C)C)CCN1C(=O)Nc1cccc(Cl)c1 [Example 125, (S)-4-[(S)-1-Dimethylcarbamoyl-3-((S)-4-hydroxy-6-aza-spiro[2.5]oct-6-yl)-propyl]-2-methyl-3-oxo-piperazine-1-carboxylic acid (3-chloro-phenyl)-amide] was tested. Which IC50 did it give?
A: 16 nM
